How the values were obtained:
Assay in all cases: relative viability (nuclei count vs DMSO), 5 days (fraction); higher = more cells survive
[1] = compound: OCc1c[nH]c2ccccc12 [Indole-3-carbinol]
Procedure, shortened: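 Viability here means nuclei in treated wells divided by nuclei in vehicle wells, reported as the median across plates. Only plates with control CV below 25% and at least one doubling passed. Lung cancer cell lines in 1536-well plates were exposed to five √10-spaced library-drug doses for 5 days and counted from 4× Hoechst images in MetaXpress.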

[2] = compound: OCc1c[nH]c2ccccc12 [Indole-3-carbinol] + O=C(c1cc(Cc2n[nH]c(=O)c3ccccc23)ccc1F)N1CCN(C(=O)C2CC2)CC1 [Olaparib] (partner 8 µM)
Procedure, shortened: (§1)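 Relative viability divides the nuclei count in treated wells by that in vehicle wells. Lung cancer cell lines were seeded in 1536-well plates, dosed by pin tool the next day, and fixed and stained after 5 days in one step with final 0.05% Triton X-100, 1% formaldehyde and 1 ug/ml Hoechst. Dosing was a single drug or a fixed anchor-drug dose plus five library-drug doses (not always all listed) in √10 steps, and values are medians of duplicate plates imaged at 4×.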

[3] = compound: OCc1c[nH]c2ccccc12 [Indole-3-carbinol] + CS(=O)(=O)N1CCN(Cc2cc3nc(-c4cccc5[nH]ncc45)nc(N4CCOCC4)c3s2)CC1 [Pictilisib] (partner 1 µM)
Procedure, shortened: as §1

[4] = compound: OCc1c[nH]c2ccccc12 [Indole-3-carbinol] + COc1cc2c(Oc3ccc(NC(=O)C4(C(=O)Nc5ccc(F)cc5)CC4)cc3F)ccnc2cc1OCCCN1CCOCC1 [Foretinib] (partner 0.25 µM)
Procedure, shortened: as §1

[5] = compound: OCc1c[nH]c2ccccc12 [Indole-3-carbinol] + CC1(C)CCC(c2ccc(Cl)cc2)=C(CN2CCN(c3ccc(C(=O)NS(=O)(=O)c4ccc(N[C@H](CCN5CCOCC5)CSc5ccccc5)c(S(=O)(=O)C(F)(F)F)c4)cc3)CC2)C1 [Navitoclax] (partner 0.5 µM)
Procedure, shortened: as §1

[6] = compound: OCc1c[nH]c2ccccc12 [Indole-3-carbinol] + CS(=O)(=O)CCNCc1ccc(-c2ccc3ncnc(Nc4ccc(OCc5cccc(F)c5)c(Cl)c4)c3c2)o1 [Lapatinib] (partner 2 µM)
Procedure, shortened: as §1

[7] = compound: OCc1c[nH]c2ccccc12 [Indole-3-carbinol] + Cc1nc(NC(=O)N2CCC[C@H]2C(N)=O)sc1-c1ccnc(C(C)(C)C(F)(F)F)c1 [Alpelisib] (partner 2 µM)
Procedure, shortened: as §1

[8] = compound: OCc1c[nH]c2ccccc12 [Indole-3-carbinol] + C[C@]1(O)C[C@@H](c2nc(-c3ccc4ccc(-c5ccccc5)nc4c3)c3c(N)nccn32)C1 [Linsitinib] (partner 1 µM)
Procedure, shortened: as §1

[9] = compound: OCc1c[nH]c2ccccc12 [Indole-3-carbinol] + CC(C)C[C@H](NC(=O)[C@H](Cc1ccccc1)NC(=O)c1cnccn1)B(O)O [Bortezomib] (partner 0.002 µM)
Procedure, shortened: as §1

[10] = compound: OCc1c[nH]c2ccccc12 [Indole-3-carbinol] + C[C@@H](Oc1cc(-c2cnn(C3CCNCC3)c2)cnc1N)c1c(Cl)ccc(F)c1Cl [Crizotinib] (partner 1 µM)
Procedure, shortened: as §1

[11] = compound: OCc1c[nH]c2ccccc12 [Indole-3-carbinol] + N=C(N)NC(=N)NCCc1ccccc1 [Phenformin] (partner 250 µM)
Procedure, shortened: as §1

[12] = compound: OCc1c[nH]c2ccccc12 [Indole-3-carbinol] + Cc1cc(Nc2cc(N3CCN(C)CC3)nc(Sc3ccc(NC(=O)C4CC4)cc3)n2)n[nH]1 [Tozasertib] (partner 0.1 µM)
Procedure, shortened: as §1

[13] = compound: OCc1c[nH]c2ccccc12 [Indole-3-carbinol] + CCNC(=O)c1noc(-c2cc(C(C)C)c(O)cc2O)c1-c1ccc(CN2CCOCC2)cc1 [Luminespib] (partner 0.01 µM)
Procedure, shortened: as §1

[14] = compound: OCc1c[nH]c2ccccc12 [Indole-3-carbinol] + COc1cccc2cc(-c3nc([C@H]4CC[C@H](C(=O)O)CC4)n4ncnc(N)c34)[nH]c12 [OSI-027] (partner 0.5 µM)
Procedure, shortened: as §1

[15] = compound: OCc1c[nH]c2ccccc12 [Indole-3-carbinol] + Cc1nc(Nc2ncc(C(=O)Nc3c(C)cccc3Cl)s2)cc(N2CCN(CCO)CC2)n1 [Dasatinib] (partner 0.075 µM)
Procedure, shortened: as §1

[16] = compound: OCc1c[nH]c2ccccc12 [Indole-3-carbinol] + Nc1nc2[nH]cc(CCc3ccc(C(=O)N[C@@H](CCC(=O)O)C(=O)O)cc3)c2c(=O)[nH]1 [Pemetrexed] (partner 0.2 µM)
Procedure, shortened: as §1

[17] = compound: OCc1c[nH]c2ccccc12 [Indole-3-carbinol] + CC(=O)c1c(C)c2cnc(Nc3ccc(N4CCNCC4)cn3)nc2n(C2CCCC2)c1=O [Palbociclib] (partner 0.5 µM)
Procedure, shortened: as §1

[18] = compound: OCc1c[nH]c2ccccc12 [Indole-3-carbinol] + CC(=O)Nc1cccc(-n2c(=O)n(C3CC3)c(=O)c3c(Nc4ccc(I)cc4F)n(C)c(=O)c(C)c32)c1 [Trametinib] (partner 0.02 µM)
Procedure, shortened: as §1

[19] = compound: OCc1c[nH]c2ccccc12 [Indole-3-carbinol] + Nc1ncn([C@H]2C[C@H](O)[C@@H](CO)O2)c(=O)n1 [Decitabine] (partner 2 µM)
Procedure, shortened: as §1

[20] = compound: OCc1c[nH]c2ccccc12 [Indole-3-carbinol] + NC(=O)Nc1cc(-c2cccc(F)c2)sc1C(=O)N[C@H]1CCCNC1 [AZD7762] (partner 0.2 µM)
Procedure, shortened: as §1

[21] = compound: OCc1c[nH]c2ccccc12 [Indole-3-carbinol] + O=C(CCCCCCC(=O)Nc1ccccc1)NO [Vorinostat] (partner 1 µM)
Procedure, shortened: as §1

What does the source list for NCI-H1299?
relative viability ([1]; 0.253 µM): 1.02; relative viability ([1]; 0.8 µM): 1.04; relative viability ([1]; 2.53 µM): 0.999; relative viability ([1]; 8 µM): 0.989; relative viability ([2]; first compound 0.253 µM): 0.907; relative viability ([2]; first compound 0.8 µM): 0.995; relative viability ([2]; first compound 2.53 µM): 0.954; relative viability ([2]; first compound 8 µM): 0.952; relative viability ([3]; first compound 0.253 µM): 0.795; relative viability ([3]; first compound 0.8 µM): 0.879; relative viability ([3]; first compound 2.53 µM): 0.691; relative viability ([3]; first compound 8 µM): 0.761; relative viability ([4]; first compound 0.253 µM): 1.07; relative viability ([4]; first compound 0.8 µM): 1.07; relative viability ([4]; first compound 2.53 µM): 1.14; relative viability ([4]; first compound 8 µM): 1.04; relative viability ([5]; first compound 0.253 µM): 1.01; relative viability ([5]; first compound 0.8 µM): 1.05; relative viability ([5]; first compound 2.53 µM): 1.03; relative viability ([5]; first compound 8 µM): 1.02; relative viability ([6]; first compound 0.253 µM): 0.892; relative viability ([6]; first compound 0.8 µM): 0.997; relative viability ([6]; first compound 2.53 µM): 0.925; relative viability ([6]; first compound 8 µM): 0.945; relative viability ([7]; first compound 0.253 µM): 1.05; relative viability ([7]; first compound 0.8 µM): 1.11; relative viability ([7]; first compound 2.53 µM): 1.11; relative viability ([7]; first compound 8 µM): 1.01; relative viability ([8]; first compound 0.253 µM): 0.986; relative viability ([8]; first compound 0.8 µM): 1; relative viability ([8]; first compound 2.53 µM): 1.02; relative viability ([8]; first compound 8 µM): 0.869; relative viability ([9]; first compound 0.253 µM): 0.977; relative viability ([9]; first compound 0.8 µM): 1.02; relative viability ([9]; first compound 2.53 µM): 1.01; relative viability ([9]; first compound 8 µM): 1.03; relative viability ([10]; first compound 0.253 µM): 0.924; relative viability ([10]; first compound 0.8 µM): 1; relative viability ([10]; first compound 2.53 µM): 0.952; relative viability ([10]; first compound 8 µM): 0.906

With NCI-H1623 as the cell line, how does the relative viability ([1]; 0.253 µM) read?
The relative viability was 0.924.

What about the relative viability ([1]; 0.8 µM) of the same cell line?
The relative viability was 1.02.

What about the relative viability ([1]; 2.53 µM) of the same cell line?
The relative viability was 0.984.

What about the relative viability ([1]; 8 µM) of the same cell line?
Its relative viability is 0.978.

What about the relative viability ([11]; first compound 0.253 µM) of the same cell line?
The relative viability was 0.725.

And the relative viability ([11]; first compound 0.8 µM)?
The relative viability was 0.611.

What about the relative viability ([11]; first compound 2.53 µM) of the same cell line?
The relative viability was 0.571.

What about the relative viability ([11]; first compound 8 µM) of the same cell line?
The relative viability was 0.551.

And the relative viability ([4]; first compound 0.253 µM)?
Its relative viability is 0.881.

And the relative viability ([4]; first compound 0.8 µM)?
Its relative viability is 0.989.

And the relative viability ([4]; first compound 2.53 µM)?
The relative viability was 0.803.

What about the relative viability ([4]; first compound 8 µM) of the same cell line?
The relative viability was 0.858.

What about the relative viability ([12]; first compound 0.253 µM) of the same cell line?
Its relative viability is 0.467.

What about the relative viability ([12]; first compound 0.8 µM) of the same cell line?
Its relative viability is 0.486.

And the relative viability ([12]; first compound 2.53 µM)?
Its relative viability is 0.39.

What about the relative viability ([12]; first compound 8 µM) of the same cell line?
The relative viability was 0.453.

And the relative viability ([13]; first compound 0.253 µM)?
The relative viability was 0.425.

What about the relative viability ([13]; first compound 0.8 µM) of the same cell line?
Its relative viability is 0.543.

What about the relative viability ([13]; first compound 2.53 µM) of the same cell line?
Its relative viability is 0.532.

And the relative viability ([13]; first compound 8 µM)?
The relative viability was 0.529.

What about the relative viability ([14]; first compound 0.253 µM) of the same cell line?
Its relative viability is 0.412.

And the relative viability ([14]; first compound 0.8 µM)?
Its relative viability is 0.443.

And the relative viability ([14]; first compound 2.53 µM)?
The relative viability was 0.424.

What about the relative viability ([14]; first compound 8 µM) of the same cell line?
The relative viability was 0.436.

What about the relative viability ([15]; first compound 0.253 µM) of the same cell line?
Its relative viability is 0.531.

And the relative viability ([15]; first compound 0.8 µM)?
Its relative viability is 0.566.

What about the relative viability ([15]; first compound 2.53 µM) of the same cell line?
The relative viability was 0.539.

And the relative viability ([15]; first compound 8 µM)?
Its relative viability is 0.577.

What does the source list for NCI-H1648?
relative viability ([1]; 0.253 µM): 1.07; relative viability ([1]; 0.8 µM): 0.846; relative viability ([1]; 2.53 µM): 0.911; relative viability ([1]; 8 µM): 0.949; relative viability ([2]; first compound 0.253 µM): 1.27; relative viability ([2]; first compound 0.8 µM): 0.69; relative viability ([2]; first compound 2.53 µM): 0.868; relative viability ([2]; first compound 8 µM): 0.572; relative viability ([16]; first compound 0.253 µM): 0.663; relative viability ([16]; first compound 0.8 µM): 0.745; relative viability ([16]; first compound 2.53 µM): 0.822; relative viability ([16]; first compound 8 µM): 0.715; relative viability ([12]; first compound 0.253 µM): 0.835; relative viability ([12]; first compound 0.8 µM): 0.488; relative viability ([12]; first compound 2.53 µM): 0.439; relative viability ([12]; first compound 8 µM): 0.473; relative viability ([17]; first compound 0.253 µM): 0.31; relative viability ([17]; first compound 0.8 µM): 0.248; relative viability ([17]; first compound 2.53 µM): 0.296; relative viability ([17]; first compound 8 µM): 0.289; relative viability ([18]; first compound 0.253 µM): 0.486; relative viability ([18]; first compound 0.8 µM): 0.423; relative viability ([18]; first compound 2.53 µM): 0.59; relative viability ([18]; first compound 8 µM): 0.521; relative viability ([19]; first compound 0.253 µM): 0.482; relative viability ([19]; first compound 0.8 µM): 0.434; relative viability ([19]; first compound 2.53 µM): 0.598; relative viability ([19]; first compound 8 µM): 0.499; relative viability ([14]; first compound 0.253 µM): 0.258; relative viability ([14]; first compound 0.8 µM): 0.235; relative viability ([14]; first compound 2.53 µM): 0.272; relative viability ([14]; first compound 8 µM): 0.242; relative viability ([20]; first compound 0.253 µM): 0.555; relative viability ([20]; first compound 0.8 µM): 0.613; relative viability ([20]; first compound 2.53 µM): 0.773; relative viability ([20]; first compound 8 µM): 0.637; relative viability ([21]; first compound 0.253 µM): 0.301; relative viability ([21]; first compound 0.8 µM): 0.825; relative viability ([21]; first compound 2.53 µM): 0.333; relative viability ([21]; first compound 8 µM): 0.41

— the supplement of paper PMC10307832
